Series [1] in a line: Heparin oral/intracolonic delivery, clotting time by activated partial thromboplastin time (APTT). The settings on record: IC (intracolonic), rats; delivery agent compound 50 mg/kg, heparin 25 mg/kg, volume dose 1 ml; baseline about 20 seconds. The format is in vivo, Sprague-Dawley rats. How it is done: Oral gavage (PO) and/or intracolonic (IC) dosing solutions containing a delivery agent compound and heparin sodium USP were prepared in 25% aqueous propylene glycol. […] This dry mixture was dissolved in 25% v/v aqueous propylene glycol, vortexed, and placed in a sonicator (about 37° C.). The pH was adjusted to about 7 (6.5 to 8.5) with aqueous NaOH (2N). The dosing solution was sonicated to produce a clear solution. The final volume was adjusted to about 3.0 ml.
(§1) The typical dosing and sampling protocols were as follows. […] The dosing solution was expressed slowly into the colon by pressing the syringe plunger.
Citrated blood samples were collected by cardiac puncture following the administration of ketamine (88 mg/kg), typically at 0.25, 0.5, 1.0 and 1.5 hours after dosing. Heparin absorption was verified by an increase in clotting time measured by the activated partial thromboplastin time (APTT) according to the method of Henry, J. B., Clinical Diagnosis and Management by Laboratory Methods, Philadelphia, Pa., W.B. Saunders (1979). Previous studies indicated baseline values of about 20 seconds.

The nature of series [2]: Recombinant human growth hormone (rhGH) oral delivery, serum rhGH by immunoassay. Particulars: oral gavage, rats; delivery agent compound 200 mg/kg, rhGH 3 mg/kg, volume dose 1 ml.
Procedure: Oral gavage (PO) dosing solutions of delivery agent compound and rhGH in phosphate buffer were prepared by mixing. A solution of the delivery agent compound was made either with the sodium salt of the delivery agent compound or by converting the free acid to its sodium salt.
The typical dosing and sampling protocols were as follows. Male Sprague-Dawley rats weighing 200-250 g were fasted for 24 hours and administered ketamine (44 mg/kg) and chlorpromazine (1.5 mg/kg) 15 minutes prior to dosing and again as needed to maintain anesthesia. A dosing group of five animals was administered one of the dosing solutions. An 11 cm Rusch 8 French catheter was adapted to a 1 ml syringe with a pipette tip. The syringe was filled with dosing solution by drawing the solution through the catheter, which was then wiped dry. The catheter was placed down the esophagus leaving 1 cm of tubing past the incisors. The dosing solution was administered by pressing the syringe plunger.
Blood samples were collected serially from the tail artery typically at time=15, 30, 45, 60 and 90 minutes. The five samples from each time period were pooled (except for those samples for which standard deviation (SD) and standard error (SE) are reported). Serum rHGH concentrations were quantified by an rHGH immunoassay test kit (Kit # K1F4015 from Genzyme Corporation Inc., Cambridge, Mass.).
The nature of series [3]: Salmon calcitonin (sCT) oral delivery, serum sCT by EIA. The settings on record: rats, delivery agent compound dose 150 mg/kg, sCT dose 30 μg/kg.
Procedure: Oral dosing (PO) compositions of a delivery agent compound and salmon calcitonin (sCT) in deionized water were prepared as described in Table 2 below. […] Either the sodium salt of the compound was used or the free acid was converted to the sodium salt by stirring the resultant solution and adding one equivalent of sodium hydroxide (1.0 N) and diluting with water. The solution was vortexed, then heated (about 37° C.) and sonicated. The pH was adjusted to about 7 (about 6.5 to 8.5) with NaOH or HCl. 90 μg sCT from a sCT stock solution (2 mg/ml made by adding 10001 pH 4 phosphate buffer to sCT and allowing it to go into solution by sitting for about 10-20 minutes and periodically gently inverting) was added to the solution.
The typical dosing and sampling protocols were as follows. Male Sprague-Dawley rats weighing between 200-250 g were fasted for 24 hours and administered ketamine (44 mg/kg) and chlorpromazine (1.5 mg/kg) 15 minutes prior to dosing and again as needed to maintain anesthesia. A dosing group of five animals was administered one of the dosing solutions. For oral dosing, an 11 cm Rusch 8 French catheter was adapted to a 1 ml syringe with a pipette tip. The syringe was filled with dosing solution by drawing the solution through the catheter, which was then wiped dry. The catheter was placed down the esophagus leaving 1 cm of tubing past the incisors. Solution was administered by pressing the syringe plunger.
Blood samples were collected serially from the tail artery, typically at time=0, 10, 20, 30, 60 and 90 minutes. […] Numbers were adjusted according to baseline values obtained at time=0. The results from the animals in each dosing group were averaged for each time point.
Series [4] can be described thus: Low molecular weight heparin (LMWH) oral/intracolonic delivery, plasma LMWH by anti-Factor Xa assay. It counts as in vivo, Sprague-Dawley rats. Particulars: IC, rats, delivery agent compound 50 mg/kg, LMWH 750 IU/kg, 1 ml/kg. How it is done:
Oral dosing (PO) and/or intracolonic (IC) compositions containing a delivery agent compound and low molecular weight heparin (LMWH) were prepared in 25% aqueous propylene glycol. […] Typically, the delivery agent compound and LMWH (Parnaparin, 91 IU/mg average molecular weight about 5,000, available from Opocrin, Modena, Italy) (typically 90-105 IU/mg, average molecular weight about 5,000) were mixed by vortex as dry powders. This dry mixture was dissolved in 25% v/v aqueous propylene glycol, vortexed, and placed in a sonicator (37° C.) to produce a clear solution. The pH was adjusted to about 7 (6.5-8.5) with 2N aqueous NaOH. The dosing solution was sonicated to produce a clear solution. The final volume was adjusted to 3.0 ml.
as §1
Citrated blood samples were collected by cardiac puncture following the administration of ketamine (88 mg/kg), typically at 0.5, 1.0, 2.0, 3.0 and 4.0 hours after dosing. LMWH absorption was verified by an increase in plasma LMWH measured by the anti-Factor Xa assay CHROMOSTRATE™ Heparin anti-Xa assay (available from Organon Teknika Corporation, Durham, N.C.). […] The peak of these mean plasma LMWH concentrations is reported below in Table 5.

Series [5] in a line: Insulin oral delivery, serum human insulin by ELISA. The settings on record: rats. How it is done:
Oral dosing (PO) compositions of delivery agent compound and human zinc insulin (minimum 26 IU/mg available from Calbiochem—Novabiochem Corp, La Jolla, Calif.) were prepared in deionized water. […] The pH was adjusted to about 7 to 8.5 with NaOH or HCl. […] The final delivery agent compound dose, insulin dose and dose volume amounts are listed below in Table 8.
The typical dosing and sampling protocols were as follows.
Serum insulin levels were determined with an Insulin ELISA Test Kit (Kit # DSL-10-1600 from Diagnostic Systems Laboratories, Inc., Webster, Tex.), modifying the standard protocol in order to optimize the sensitivity and linear range of the standard curve for the volumes and concentrations of the samples used in the present protocol. […] The five values for each time point were averaged and the results plotted as serum insulin concentration versus time.
Background: An ELISA detects its analyte on a solid surface through an enzyme-linked reagent.

Where [6] appears, read: delivery agent compound 200 mg/kg, insulin 0.5 mg/kg, 1 ml/kg.
The mark [7] stands for this setting: delivery agent compound 200 mg/kg, insulin 3 mg/kg, 1 ml/kg.
[8] abbreviates: delivery agent compound 100 mg/kg, insulin 3 mg/kg, 0.5 ml/kg.

Several values for one entry are separate records, joined by “and”; a condition that tells them apart may be missing. Equal entries are not always repeated.

On to `CNC(=O)c1ccccc1OCCCCCCCCCC(=O)O` [Compound 51], for which the “Mean Peak APTT ± SD” value in series [1] was determined as 92.5 ± 41.5 s.

On to `NC(=O)c1ccccc1OCc1ccc(C(=O)O)cc1` [Compound 52], for which the “Mean Peak Serum [rhGH]” value in series [2] is 0 ng/mL. In addition, in series [3] (dose volume 1 (ml)), the “Mean Peak Serum sCT (pg/ml ± SD) (SE)” value amounted to 163 ± 300 pg/mL.

`CC(=O)c1ccccc1OCCCCCCCCCC(=O)O` [Compound 54]: the “Mean Peak APTT ± SD” value in series [1] amounted to 31.56 ± 7.54 s. The “Mean Peak Serum [rhGH]” value in series [2] was determined as 6.37 ng/mL. Besides, the “Mean Peak Plasma LMWH Concentration ± SD” value in series [4] is 3.046 ± 0.422 IU/ml. Moreover, in series [3] (dose volume 1 (ml)), the “Mean Peak Serum sCT (pg/ml ± SD) (SE)” value was found to be 34 ± 47 pg/mL.

Consider `COc1ccc(OCCCCCCCC(=O)O)c(C(C)=O)c1` [Compound 55], for which the “Mean Peak Serum [rhGH]” value in series [2] amounted to 12.4 ng/mL.

Take `COc1ccc(C(C)=O)c(OCCCCCCCC(=O)O)c1` [Compound 56]: the “Mean Peak Serum [rhGH]” value in series [2] turned out to be 0 ng/mL. In series [3] (dose volume 1 (ml), 150 mg/kg), the “Mean Peak Serum sCT (pg/ml ± SD) (SE)” value is 165 ± 243 pg/mL and 90 ± 125 pg/mL and 113 ± 115 pg/mL and 175 ± 150 pg/mL.

On to `O=Cc1ccccc1OCc1ccc(C(=O)O)cc1` [Compound 59], for which, in series [5] (setting [6]), the “Mean Peak Serum [INS] ± SD” value was determined as 315.53 ± 154.56 μU/ml.

As to `O=Cc1ccccc1OCCCCCC(=O)O` [Compound 60], the “Mean Peak Serum [rhGH]” value in series [2] was determined as 1.5 ± 3.3 ng/mL.

`CC(=O)c1ccc(OCCCCCCCC(=O)O)cc1` [Compound 62]: in series [1], the “Mean Peak APTT ± SD” value is 152.41 ± 136.63 s and 91.204 ± 117.43 s. Further, in series [2], the “Mean Peak Serum [rhGH]” value was 6.2 ng/mL. Besides, the “Mean Peak Serum sCT (pg/ml ± SD) (SE)” value in series [3] (dose volume 1 (ml)) turned out to be 117 ± 158 pg/mL.

For `CC(=O)c1cccc(OCCCCCCCC(=O)O)c1` [Compound 64], the “Mean Peak APTT ± SD” value in series [1] is 220.988 ± 122.2 s and 125.372 ± 114.72 s. Moreover, in series [2], the “Mean Peak Serum [rhGH]” value was 5 ng/mL. Also, the “Mean Peak Serum sCT (pg/ml ± SD) (SE)” value in series [3] (dose volume 1 (ml)) was 138 ± 148 pg/mL.

For `O=C(O)c1ccc(COc2ccccc2)cc1` [Compound 66], the “Mean Peak Serum [rhGH]” value in series [2] was 0 ng/mL. Besides, the “Mean Peak Plasma LMWH Concentration ± SD” value in series [4] (50 mg/kg) was 0.952 IU/ml and 1.114 ± 0.254 IU/ml. Moreover, the “Mean Peak Serum sCT (pg/ml ± SD) (SE)” value in series [3] (dose volume 4 (ml)) was 109 ± 244 pg/mL.

Turning to `O=C(O)CCCCCCCOc1cccc(Cl)c1` [Compound 68], the “Mean Peak Serum [INS] ± SD” value in series [5] (setting [7]) is 76.23 ± 76.88 μU/ml.

Take `O=C(O)CCCCCCCCCCOc1ccccc1O` [Compound 72]: the “Mean Peak Serum [INS] ± SD” value in series [5] (setting [7]) is 4702.5 ± 4700.4 μU/ml. Besides, the “Mean Peak Serum [rhGH]” value in series [2] stood at 28 ng/mL.

Regarding `O=C(O)CCCCCCCOc1ccccc1Cl` [Compound 73], the “Mean Peak Serum [INS] ± SD” value in series [5] (setting [8]) came out at 147.66 ± 176.71 μU/ml.

Regarding `O=C(O)CCCCCCCOc1cc([N+](=O)[O-])ccc1O` [Compound 74], the “Mean Peak Serum [INS] ± SD” value in series [5] (setting [8]) is on record as 70.69 ± 127.89 μU/ml.

Take `O=C(O)CCCCOc1ccccc1F` [Compound 75]: the “Mean Peak Serum [INS] ± SD” value in series [5] (setting [6]) is 33.88 ± 38.49 μU/ml and 32.54 ± 19.78 μU/ml.

In the case of `O=C(O)CCCCOc1ccccc1C(F)(F)F` [Compound 76], the “Mean Peak Serum [INS] ± SD” value in series [5] (setting [6]) was 24.72 ± 25.53 μU/ml and 38.74 ± 74.4 μU/ml.

For the compound `O=C(O)c1ccc(C(O)COc2ccccc2O)cc1` (centres unmarked) [Compound 79], in series [3] (dose volume 1 (ml)), the “Mean Peak Serum sCT (pg/ml ± SD) (SE)” value was 133 ± 90 pg/mL.

Values taken from patent publication US8410309B2, “Phenoxy carboxylic acid compounds and compositions for delivering active agents” (Emisphere Technologies, Inc., priority 1999, dated 2013).
